The values below come from US9126948B2, “Pyrimidine-4,6-diamine derivatives as PI3K inhibitors” (Incyte Holdings Corporation, priority 2011, dated 2015).

Assay [1] relates to Pfeiffer cell line (diffuse large B cell lymphoma). Nature of the assay: Pfeiffer Cell Proliferation Assay. The format is cell-based. As to conditions: Homo sapiens, [3H]-thymidine incorporation after 3-4 days. As to the method:
Pfeiffer cell line (diffuse large B cell lymphoma) was purchased from ATCC (Manassas, Va.) and maintained in the culture medium recommended (RPMI and 10% FBS). To measure the anti-proliferation activity of the compounds, the Pfeiffer cells were plated with the culture medium (2×10^3 cells/well/[…]) into 96-well ultra-low binding plates (Corning, Corning, N.Y.), in the presence or absence of a concentration range of test compounds. After 3-4 days, [^3H]-thymidine (1 μCi/well) (PerkinElmer, Boston, Mass.) in PBS was then added to the cell culture for an additional 12 hours before the incorporated radioactivity was separated by filtration with water through GF/B filters (Packard Bioscience, Meridenj, Conn.) and measured by liquid scintillation counting with a TopCount (Packard Bioscience). Pfeiffer cell proliferation data for certain compounds described herein is provided below in Table 8.

The target of assay [2] is PI3Kδ (p110δ/p85α) (Homo sapiens (Human), UniProt O00329). Nature of the assay: PI3Kδ Scintillation Proximity Assay. It is filed as biochemical. The settings on record: 20 μM PIP2, 20 μM ATP, 4 nM PI3Kδ, 210 min; read-out: PI3Kδ SPA IC50. From the text: [γ-^33P]ATP (10 mCi/mL) was purchased from Perkin-Elmer (Waltham, Mass.). Lipid kinase substrate, D-myo-Phosphatidylinositol 4,5-bisphosphate (PtdIns(4,5)P2)D(+)-sn-1,2-di-O-octanoylglyceryl, 3-O-phospho linked (PIP2), CAS 204858-53-7, was purchased from Echelon Biosciences (Salt Lake City, Utah). PI3Kδ (p110δ/p85α) was purchased from Millipore (Bedford, Mass.). ATP, MgCl2, DTT, EDTA, MOPS and CHAPS were purchased from Sigma-Aldrich (St. Louis, Mo.). Wheat Germ Agglutinin (WGA) YSi SPA Scintillation Beads was purchased from GE healthcare life sciences (Piscataway, N.J.).
PI3Kδ (p110δ/p85α), sequence (O00329 whole entry, species assumed): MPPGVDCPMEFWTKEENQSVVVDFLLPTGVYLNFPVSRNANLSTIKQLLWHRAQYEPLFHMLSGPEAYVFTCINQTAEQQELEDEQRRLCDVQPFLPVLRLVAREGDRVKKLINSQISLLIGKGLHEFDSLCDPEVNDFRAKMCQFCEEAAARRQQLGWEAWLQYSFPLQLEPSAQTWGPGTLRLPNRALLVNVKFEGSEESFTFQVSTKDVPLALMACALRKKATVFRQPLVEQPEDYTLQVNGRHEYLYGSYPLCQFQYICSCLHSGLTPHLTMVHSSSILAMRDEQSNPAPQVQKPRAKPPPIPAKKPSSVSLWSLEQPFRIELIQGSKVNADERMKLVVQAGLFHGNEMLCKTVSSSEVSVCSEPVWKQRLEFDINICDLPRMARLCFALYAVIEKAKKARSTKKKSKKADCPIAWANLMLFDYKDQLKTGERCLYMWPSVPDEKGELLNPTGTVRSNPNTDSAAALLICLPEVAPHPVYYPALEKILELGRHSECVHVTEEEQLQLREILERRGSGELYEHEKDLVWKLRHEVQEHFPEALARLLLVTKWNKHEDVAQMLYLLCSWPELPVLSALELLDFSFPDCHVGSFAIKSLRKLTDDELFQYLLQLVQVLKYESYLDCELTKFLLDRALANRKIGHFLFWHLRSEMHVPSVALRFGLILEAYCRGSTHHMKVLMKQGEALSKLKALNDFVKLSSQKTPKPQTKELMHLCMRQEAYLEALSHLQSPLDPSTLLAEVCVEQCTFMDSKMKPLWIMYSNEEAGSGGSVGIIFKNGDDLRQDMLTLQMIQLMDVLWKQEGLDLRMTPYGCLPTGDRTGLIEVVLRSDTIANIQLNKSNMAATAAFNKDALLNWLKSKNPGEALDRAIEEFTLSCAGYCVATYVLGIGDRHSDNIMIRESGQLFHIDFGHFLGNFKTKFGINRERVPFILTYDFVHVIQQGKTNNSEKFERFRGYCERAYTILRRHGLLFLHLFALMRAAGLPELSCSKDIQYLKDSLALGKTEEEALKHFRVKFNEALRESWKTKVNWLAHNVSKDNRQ
PI3Kδ (p110δ/p85α), sequence (P27986 whole entry partner, species assumed): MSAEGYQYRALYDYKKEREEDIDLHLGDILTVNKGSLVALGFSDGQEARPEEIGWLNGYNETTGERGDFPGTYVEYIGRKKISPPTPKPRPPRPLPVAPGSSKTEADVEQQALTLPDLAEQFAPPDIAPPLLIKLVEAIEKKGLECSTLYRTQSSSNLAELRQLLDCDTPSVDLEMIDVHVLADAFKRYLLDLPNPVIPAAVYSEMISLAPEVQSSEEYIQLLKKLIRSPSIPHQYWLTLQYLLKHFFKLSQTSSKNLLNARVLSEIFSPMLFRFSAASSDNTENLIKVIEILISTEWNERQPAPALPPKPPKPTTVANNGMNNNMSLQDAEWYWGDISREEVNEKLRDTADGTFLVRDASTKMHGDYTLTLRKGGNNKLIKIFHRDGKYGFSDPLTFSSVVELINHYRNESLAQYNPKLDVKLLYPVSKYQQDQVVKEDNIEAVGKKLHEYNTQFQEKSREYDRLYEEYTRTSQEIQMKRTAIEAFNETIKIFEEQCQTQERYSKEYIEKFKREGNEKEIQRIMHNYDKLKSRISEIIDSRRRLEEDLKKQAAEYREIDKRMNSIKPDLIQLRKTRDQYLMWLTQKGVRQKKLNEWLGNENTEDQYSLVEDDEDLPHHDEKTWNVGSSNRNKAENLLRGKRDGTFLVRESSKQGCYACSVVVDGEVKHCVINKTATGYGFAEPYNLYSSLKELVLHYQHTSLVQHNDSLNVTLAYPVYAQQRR
The kinase reaction was conducted in polystyrene 384-well matrix white plate from Thermo Fisher Scientific in a final volume of 25 μL. Inhibitors were first diluted serially in DMSO and added to the plate wells before the addition of other reaction components. The final concentration of DMSO in the assay was 0.5%. The PI3K assays were carried out at room temperature in 20 mM MOPS, pH 6.7, 10 mM MgCl2, 5 mM DTT and CHAPS 0.03%. Reactions were initiated by the addition of ATP, the final reaction mixture consisted of 20 μM PIP2, 20 μM ATP, 0.2 μCi [γ-^33P]ATP, 4 nM PI3Kδ. Reactions were incubated for 210 min and terminated by the addition of 40 μL SPA beads suspended in quench buffer: 150 mM potassium phosphate pH 8.0, 20% glycerol. 25 mM EDTA, 400 μM ATP. The final concentration of SPA beads was 1.0 mg/mL. After the plate sealing, plates were shaken overnight at room temperature and centrifuged at 1800 rpm for 10 minutes, the radioactivity of the product was determined by scintillation counting on Topcount (Perkin-Elmer). IC50 determination was performed by fitting the curve of percent control activity versus the log of the inhibitor concentration using the GraphPad Prism 3.0 software.
Background: In a scintillation proximity assay essentially only radioactivity close to the scintillant gives light.

SMILES strings stand for the structures. Where a name gives a salt, the structure may show the parent alone.

What is called IC50 is the midpoint of a concentration-inhibition curve.

For `COc1c(C(C)Nc2ncnc(N)c2C#N)cc(Cl)c(C)c1-c1cncc(S(C)(=O)=O)c1` (stereo not shown) [Example 1, 4-Amino-6-[(1-{5-chloro-2-methoxy-4-methyl-3-[5-(methylsulfonyl)pyridin-3-yl]phenyl}ethyl)amino]pyrimidine-5-carbonitrile trifluoroacetic acid salt], the IC50 in assay [1] was less than 20 nM.

Take `COc1c(C(C)Nc2ncnc(N)c2C#N)cc(Cl)c(C)c1-c1cncc(C#N)c1` (stereo not shown) [Example 2, 4-amino-6-({1-[5-chloro-3-(5-cyano-pyridin-3-yl)-2-methoxy-4-methylphenyl]ethyl}amino)-pyrimidine-5-carbonitrile]: the IC50 in assay [2] and in assay [1] was less than 20 nM throughout.

With `COc1c(C(C)Nc2ncnc(N)c2C#N)cc(Cl)c(C)c1-c1cnc(N)nc1` (stereo not shown) [Example 3, 4-amino-6-({1-[3-(2-aminopyrimidin-5-yl)-5-chloro-2-methoxy-4-methyl-phenyl]ethyl}-amino)pyrimidine-5-carbonitrile], the half-inhibitory concentration (IC50) in assay [2] and in assay [1] was less than 20 nM each time.

Turning to `COc1c(C(C)Nc2ncnc(N)c2C#N)cc(Cl)c(C)c1-c1ccc(S(C)(=O)=O)cc1` (stereo not shown) [Example 4, 4-amino-6-({1-[5-chloro-2-methoxy-6-methyl-4′-(methyl-sulfonyl)biphenyl-3-yl]ethyl}amino) pyrimidine-5-carbonitrile], the IC50 in assay [2] and in assay [1] was less than 20 nM in each case.

Consider `COc1c(C(C)Nc2ncnc(N)c2C#N)cc(Cl)c(C)c1-c1cncc(C(=O)N2CCOCC2)c1` (stereo not shown) [Example 5, 4-amino-6-[(1-{5-chloro-2-methoxy-4-methyl-3-[5-(morpholin-4-ylcarbonyl)pyridin-3-yl]phenyl}ethyl)-amino]pyrimidine-5-carbonitrile], for which the IC50 in assay [2] and in assay [1] was less than 20 nM in each case.

With `COc1c(C(C)Nc2ncnc(N)c2C#N)cc(Cl)c(F)c1-c1cncc(C#N)c1` (stereo not shown) [Example 6, 4-Amino-6-({1-[5-chloro-3-(5-cyanopyridin-3-yl)-4-fluoro-2-methoxyphenyl]ethyl}-amino)pyrimidine-5-carbonitrile], the IC50 in assay [2] and in assay [1] was less than 20 nM each time.

For the molecule `COc1c(C(C)Nc2ncnc(N)c2C#N)cc(Cl)c(F)c1-c1cncc(F)c1` (stereo not shown) [Example 7, 4-amino-6-({1-[5-chloro-4-fluoro-3-(5-fluoropyridin-3-yl)-2-methoxyphenyl]ethyl}-amino) pyrimidine-5-carbonitrile], the IC50 in assay [2] and in assay [1] was less than 20 nM throughout.

Take `COc1c(C(C)Nc2ncnc(N)c2C#N)cc(Cl)c(F)c1-c1cncc(S(C)(=O)=O)c1` (stereo not shown) [Example 8, 4-amino-6-[(1-{5-chloro-4-fluoro-2-methoxy-3-[5-(methyl-sulfonyl)pyridin-3-yl]phenyl}ethyl)amino]-pyrimidine-5-carbonitrile bis(trifluoroacetate)]: the half-maximal inhibitory concentration (IC50) in assay [2] and in assay [1] was less than 20 nM in each case.

As to `COc1c(C(C)Nc2ncnc(N)c2C#N)cc(Cl)c(F)c1-c1ccc(S(C)(=O)=O)cc1` (stereo not shown) [Example 9, 4-amino-6-({1-[5-chloro-6-fluoro-2-methoxy-4′-(methylsulfonyl)biphenyl-3-yl]ethyl}amino) pyrimidine-5-carbonitrile], in assay [2], the half-maximal inhibitory concentration (IC50) was less than 20 nM.

Regarding `COc1c(C(C)Nc2ncnc(N)c2C#N)cc(Cl)c(F)c1-c1cnc(N)nc1` (stereo not shown) [Example 10, 4-amino-6-({1-[3-(2-aminopyrimidin-5-yl)-5-chloro-4-fluoro-2-methoxyphenyl]-ethyl}amino)pyrimidine-5-carbonitrile], the IC50 in assay [2] and in assay [1] was less than 20 nM throughout.

Turning to `COc1c(C(C)Nc2ncnc(N)c2C#N)cc(Cl)c(Cl)c1-c1cncc(S(C)(=O)=O)c1` (stereo not shown) [Example 11, 4-Amino-6-[(1-{4,5-dichloro-2-methoxy-3-[5-(methylsulfonyl)pyridin-3-yl]phenyl}ethyl)amino]pyrimidine-5-carbonitrile], the IC50 in assay [2] and in assay [1] was less than 20 nM each time.

Take `COc1c(C(C)Nc2ncnc(N)c2C#N)cc(Cl)c(Cl)c1-c1cncc(F)c1` (stereo not shown) [Example 12, 4-Amino-6-({1-[4,5-dichloro-3-(5-fluoropyridin-3-yl)-2-methoxyphenyl]ethyl}amino) pyrimidine-5-carbonitrile]: the IC50 in assay [2] and in assay [1] was less than 20 nM in each case.

On to `COc1c(C(C)Nc2ncnc(N)c2C#N)cc(Cl)c(Cl)c1-c1ccc(S(C)(=O)=O)cc1` (stereo not shown) [Example 13, 4-Amino-6-({1-[5,6-dichloro-2-methoxy-4′-(methylsulfonyl)biphenyl-3-yl]ethyl}amino) pyrimidine-5-carbonitrile], for which, in assay [2], the IC50 was less than 20 nM.

Turning to `COc1c(C(C)Nc2ncnc(N)c2C#N)cc(Cl)c(Cl)c1-c1cnc(N)nc1` (stereo not shown) [Example 14, 4-Amino-6-({1-[3-(2-aminopyrimidin-5-yl)-4,5-dichloro-2-methoxy-phenyl]ethyl}amino)pyrimidine-5-carbonitrile], the IC50 in assay [2] and in assay [1] was less than 20 nM each time.
